# Read-outs that look alike come from different tables or passages of the source.
# Tested on: 5-HT levels in ventral hippocampus
# Settings: for effects on hippocampal 5-HT levels: amoxapine alone, rat ventral hippocampus microdialysis
# Protocol: Male albino rats of a Wistar-derived strain (285-320 g; Harlan, Zeist, The Netherlands) were used for the experiments. Upon surgery, rats were housed individually in plastic cages (35×35×40 cm), and had free access to food and water. Animals were kept on a 12 h light schedule (light on 7:00 a.m.). The experiments are concordant with the declarations of Helsinki and were approved by the animal care committee of the faculty of mathematics and natural science of the University of Groningen.
# Preceding surgery rats were anaesthetised using isoflurane (O2/N2O; 300/300 ml/min). Lidocaine-HCl, 10% (m/v) was used for local anaesthesia.
# Rats were allowed to recover for at least 24 h. […] 15 minute microdialysis samples were collected in HPLC vials containing 7.5 μl 0.02 M acetic acid for serotonin analysis.
# Twenty-μl microdialysate samples were injected via an autoinjector (CMA/200 refrigerated microsampler, CMA, Sweden) onto a 100×2.0 mm C18 Hypersil 3 μm column (Bester, Amstelveen, the Netherlands) and separated with a mobile phase consisting of 5 g/L di-ammoniumsulfate, 500 mg/L EDTA, 50 mg/L heptane sulphonic acid, 4% methanol v/v, and 30 μl/L of triethylamine, pH 4.65 at a flow of 0.4 ml/min (Shimadzu LC-10 AD). 5-HT was detected amperometrically at a glassy carbon electrode at 500 mV vs Ag/AgCl (Antec Leyden, Leiden, The Netherlands). The detection limit was 0.5 fmol 5-HT per 20 μl sample (signal to noise ratio 3).
# Four consecutive microdialysis samples with less then 20% variation were taken as control and set at 100%. […] Treatments were compared versus controls using two way analysis of variance (ANOVA) for repeated measurements, followed by Student Newman Keuls test. […] Level of significance level was set at p<0.05.
structure (smiles),measurement,setting,value
Clc1ccc2c(c1)C(N1CCNCC1)=Nc1ccccc1O2 [amoxapine],effects on hippocampal 5-HT levels,"1 μmol/kg s.c., P=0.08",did not induce any significant effects
same,effects on hippocampal 5-HT levels,"10 μmol/kg s.c., P=0.47",did not induce any significant effects
same,response in the 5-HT microdialysis model,"summary statement, dose not stated, compared to the serotonin reuptake inhibitor alone",no significant effect

# Reference: patent US20080167290A1, “Combination of a Serotonin Reuptake Inhibitor and Amoxapine” (H. Lundbeck A/S, priority 2003, published 2008)
